The IC50 is the concentration at which inhibition is half-maximal. Read a low IC50 as greater potency in that assay. A word on the Tmax: it is the time at which the peak concentration occurs. What is called CLint scaled is the capacity of the preparation to metabolise the compound, expressed as a volume cleared per time.

The text below walks through data of patent US20220204510A1, “2,3-DIHYDRO-1H-PYRROLIZINE-7-FORMAMIDE DERIVATIVE AND APPLICATION THEREOF” (CHIA TAI TIANQING PHARMACEUTICAL GROUP CO., LTD., priority 2018, published 2022).

One data set deals with T1, CYP2D6 (Homo sapiens, UniProt P10635).
T1 construct: from tissue; host or cells: human liver microsomes
The experiment in a line: Inhibition of human liver microsomal cytochrome P450 isoenzymes. The format is in vitro ADME. The note with it: human liver microsomes. How it is done:
Experimental objective: to determine the inhibitory effect of the test compound on the activity of human liver microsomal cytochrome P450 isoenzymes (CYP1A2, CYP2C9, CYP2C19, CYP2D6 and CYP3A4). Experimental procedures: first, the test compound (10 mM) was diluted in gradient to prepare working solutions (100× final concentration) at concentrations of: 5, 1.5, 0.5, 0.15, 0.05, 0.015, and 0.005 mM, and working solutions of positive inhibitors for P450 isoenzymes (CYP1A2, CYP2C9, CYP2C19, CYP2D6, and CYP3A4) and the specific substrate mixtures thereof (5 in 1) were prepared simultaneously; human liver microsomes frozen in a−80° C. refrigerator were thawed on ice, and after all thawed, the human liver microsomes were diluted with PB to prepare a working solution at a specific concentration (0.253 mg/mL); 20 μL of the substrate mixture (20 μL of PB was added into the blank well) and 158 μL of the working solution of human liver microsomes were added into the reaction plate which was then placed on ice for use; then 2 μL of the test compound at each concentration (N=1) and a specific inhibitor (N=2) were added into the corresponding well, and the group without the inhibitor (test compound or the positive inhibitor) was added with a corresponding organic solvent as a control sample (the test compound control sample was 1:1 DMSO:MeOH; the positive control sample was 1:9 DMSO:MeOH); after pre-incubation under a 37° C. water bath for 10 min, 20 μL of a coenzyme factor (NADPH) solution was added into the reaction plate and incubated under a 37° C. water bath for 10 min, 400 μL of a cold acetonitrile solution (the internal standard was 200 ng/mL Tolbutamide and Labetalol) was added to terminate the reaction, and the reaction plate was placed on a shaker and shaken for 10 min; after centrifugation at 4,000 rpm for 20 min, 200 μL of the supernatant was collected and added to 100 μL of water to dilute the sample, and, finally, the plate was sealed, oscillated shaken evenly, and subjected to LC/MS/MS detection.

The nature of data set [1]: Pharmacokinetic study in Balb/c mice by oral administration and intravenous injection. To be noted: mouse, plasma, Balb/c female mice; for bioavailability / AUC / Cmax / Tmax: 3 mg/kg; for bioavailability: PO (3 mpk) vs IV (1 mg/kg), read-out: Bioavailability F; for AUC / Cmax / Tmax: PO (3 mpk); for AUC: read-out: Area under the plasma concentration-time curve AUC; for Cmax: read-out: Peak concentration Cmax; for Tmax: read-out: Peak time Tmax; for Vd / AUC(0-t) / clearance / half-life: IV (1 mg/kg); for Vd: read-out: Apparent volume of distribution Vdss; for AUC(0-t): read-out: Area under the plasma concentration-time curve AUC0-24 h; for clearance: read-out: Clearance CL; for half-life: read-out: Half-life T1/2 (converted). The format is in vivo. How it is done: Pharmacokinetic study of the test compound in Balb/c mice by oral administration and intravenous injection: The test compound was mixed with a solution containing dimethyl sulfoxide (10%), polyethylene glycol 400 (60%) and water (30%), and the mixture was vortexed and sonicated to prepare a 0.2 mg/mL clear solution, which was filtered through a millipore filter for later use. Balb/c female mice aged 7 to 10 weeks were intravenously injected with the candidate compound solution at a dose of 1 mg/kg. The test compound was mixed with an aqueous solution containing 10% polyoxyethylene stearate, and the mixture was vortexed and sonicated to prepare a 0.3 mg/mL clear solution for later use. Balb/c female mice aged 7 to 10 weeks were orally administered with the candidate compound solution at a dose of 3 mg/kg. Whole-blood was collected and plasma was prepared. Drug concentration was analyzed by LC-MS/MS and pharmacokinetic parameters were calculated with Phoenix WinNonlin software.

Data set [2] is described as follows: Metabolic stability in liver microsomes. The format is in vitro ADME. The note with it: mouse, CD-1 mice liver microsomes; for half-life at 1 μM: 1 μM compound, 0.5 mg/mL; for microsomal CLint at 1 μM: read-out: CLint(mic). How it is done:
Experimental objective: to evaluate the metabolic stability of the test compound in CD-1 mice and human liver microsomes
Experimental procedures: first, the test compound (10 mM) was subjected to a two-step dilution, where the compound was diluted to an intermediate concentration of 100 μM with 100% methanol, and the working solution was diluted to 10 μM with a potassium phosphate buffer; eight 96-well incubation plates were prepared, and named T0, T5, T10, T20, T30, T60, Blank and NCF60, respectively; the reaction time points corresponding to the first 6 incubation plates were 0, 5, 10, 20, 30 and 60 min, respectively; for the Blank plate, neither the test compound nor a control compound was added, and for the NCF60 plate, potassium phosphate buffer was used in an incubation of 60 min in place of a NADPH regeneration system solution; 10 μL of the test compound working solution and 80 μL of the microsome working solution (liver microsome protein concentration was 0.625 mg/mL) were added to the T0, T5, T10, T20, T30, T60 and NCF60 plates, while only the microsome working solution was added to the Blank plate, and all the incubation plates were then placed in a 37° C. water bath for pre-incubation for about 10 min; after the pre-incubation, 10 μL of a NADPH regeneration system working solution was added into each sample well of all the plates except the NCF60 plate and T0 plate to start the reaction, and 10 μL of potassium phosphate buffer was added to each well of the NCF60 plate; therefore, in the test compound or control compound samples, the final reaction concentrations of the compound, testosterone, diclofenac and propafenone were 1 μM, the concentration of the liver microsomes was 0.5 mg/mL, and the final concentrations of DMSO and acetonitrile in the reaction system were 0.01% (v/v) and 0.99% (v/v), respectively; after incubation for an appropriate time (such as 5, 10, 20, 30, and 60 min), 300 μL of a stop solution (acetonitrile solution containing 100 ng/mL tolbutamide and 100 ng/mL labetalol) was added to each sample well to stop the reaction; 300 μL of the stop solution and then 10 μL of the NADPH working solution were added to the T0 plate, all the sample plates were shaken and centrifuged in a centrifuge (3220×g) for 20 min, and then 100 μL of supernatant was taken from each well and diluted with 300 μL of pure water for liquid chromatography-tandem mass spectrometry analysis.
On the technique in general: Microsomes from liver hold many membrane-bound enzymes, among them those of drug oxidation.

Data set [3] can be described thus: Experiment on the liver-to-blood ratio in Balb/c mice, oral administration. The format is in vivo. To be noted: oral 3 mg/kg, Balb/c female mice; for AUC0-last: Liver; for Kp / AUC(0-t): mouse; for Kp: liver (tissue homogenate) / plasma, read-out: AUC Ratio (L/P) Liver/plasma exposure ratio; for AUC(0-t): Plasma. The protocol:
Experiment on the liver-to-blood ratio in Balb/c mice orally administered with the test compound Compound 18 was mixed with an aqueous solution containing 10% polyethylene glycol-15 hydroxystearate, and the mixture was vortexed and sonicated to prepare a 0.3 mg/mL uniform suspension for later use. Balb/c female mice aged 7 to 10 weeks were orally administered with the candidate compound solution at a dose of 3 mg/kg. Whole blood at a certain time point was collected and plasma was prepared. Liver tissues at the corresponding time point were collected to prepare a tissue homogenate. Drug concentration was analyzed by LC-MS/MS and pharmacokinetic parameters were calculated with Phoenix WinNonlin software. Compound 25 was mixed with an aqueous solution containing 10% polyethylene glycol-15 hydroxystearate, and the mixture was vortexed and sonicated to prepare a 0.3 mg/mL clear solution for later use. Balb/c female mice aged 7 to 10 weeks were orally administered with the candidate compound solution at a dose of 3 mg/kg. Whole blood at a certain time point was collected and plasma was prepared. Liver tissues at the corresponding time point were collected to prepare a tissue homogenate. Drug concentration was analyzed by LC-MS/MS and pharmacokinetic parameters were calculated with Phoenix WinNonlin software.

T1 sequence (P10635 whole entry): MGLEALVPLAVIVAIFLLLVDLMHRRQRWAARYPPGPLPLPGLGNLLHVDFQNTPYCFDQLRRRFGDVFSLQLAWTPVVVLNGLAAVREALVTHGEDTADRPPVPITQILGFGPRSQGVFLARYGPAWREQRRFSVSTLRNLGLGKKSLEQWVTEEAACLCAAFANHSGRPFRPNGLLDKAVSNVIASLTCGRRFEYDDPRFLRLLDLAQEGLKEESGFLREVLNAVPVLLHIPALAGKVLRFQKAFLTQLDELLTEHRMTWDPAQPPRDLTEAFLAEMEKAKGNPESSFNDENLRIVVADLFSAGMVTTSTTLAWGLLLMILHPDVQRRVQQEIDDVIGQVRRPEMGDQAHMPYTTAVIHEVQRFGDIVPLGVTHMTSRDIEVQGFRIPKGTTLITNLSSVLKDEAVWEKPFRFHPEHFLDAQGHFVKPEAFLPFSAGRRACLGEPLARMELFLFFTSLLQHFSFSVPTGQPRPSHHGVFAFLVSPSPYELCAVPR

At CYP2D6, `C[C@]1(NC(=O)C(=O)c2c(Cl)c(C(=O)Nc3ccc(F)c(F)c3)c3n2CCC3)CC[C@H](CC(=O)O)CC1` [Compound 18] gave an IC50 of more than 50 µM. Further, in data set [1], the bioavailability was 271%, the AUC was determined as 5.02 µM·h, the Cmax was 1460 nM and the Tmax was found to be 0.5 h. Besides, in data set [1], the Vd worked out at 8.8 L/kg, the AUC(0-t) came to 0.617 µM·h, the clearance was 50.1 mL/min/kg and the half-life was 2.8 h. Moreover, in data set [2], the CLint scaled at 1 μM was less than 38 mL/min/kg, the half-life at 1 μM was more than 2.42 h and the microsomal CLint at 1 μM is less than 9.6 µL/min/mg. Also, in data set [3], the AUC0-last was determined as 75412 nmol·h/kg, the Kp stood at 20.4 and the AUC(0-t) was found to be 3.69 µM·h.
For `C[C@]1(NC(=O)C(=O)c2c(Cl)c(C(=O)Nc3cc(F)c(F)c(F)c3)c3n2CCC3)CC[C@H](CC(=O)O)CC1` [Compound 25], the IC50 on CYP2D6 is more than 50 µM. Besides, in data set [1], the bioavailability is 51%, the AUC amounted to 2.27 µM·h, the Cmax was 1480 nM and the Tmax stood at 0.5 h. Further, in data set [1], the Vd was found to be 3.1 L/kg, the AUC(0-t) was determined as 1.49 µM·h, the clearance was found to be 20 mL/min/kg and the half-life is 1.95 h. Further, in data set [2], the CLint scaled at 1 μM is less than 38 mL/min/kg, the half-life at 1 μM was more than 2.42 h and the microsomal CLint at 1 μM is less than 9.6 µL/min/mg. In data set [3], the AUC0-last came to 86036 nmol·h/kg, the Kp was 24.7 and the AUC(0-t) is 3.48 µM·h.
